What was measured:
[1] = test system: transformant having actin promoter; conditions: GPY plate media, 28° C.
[2] = test system: Schizochytrium sp. CB15-5; conditions: medium containing 10 to 30 μg/ml Zeocin; 28° C., 72 hours in the shade
Description: (3) Test for Zeocin Sensitivity of CB15-5 Strain
The precultured microorganism cells were diluted 1000-fold, and 100 μL thereof was seeded onto GYP plate media having Zeocin concentration ranging from 0 to 50 μg/ml, and incubated at 28° C. for 72 hours in the shade. The number and size of the resulting colonies were measured.

[3] = test system: transformant having ef1α promoter; conditions: GPY plate media, 28° C.
Description: (§1) (22) Test for Zeocin Sensitivity of Transformant
(§2) The precultured microorganism cells were diluted to 20 cells/μl, and 1 μl thereof was spotted onto GPY plate media having Zeocin concentration ranging from 0 to 6000 μg/ml and incubated in the shade at 28° C. for 60 hours.

[4] = test system: wild type (CB15-5 strain); conditions: GPY plate media, 28° C.
Description: as §1, §2

[5] = test system: transformant having gapdh promoter; conditions: GPY plate media, 28° C.
Description: as §1, §2

In the case of `Cc1c(N)nc([C@H](CC(N)=O)NC[C@H](N)C(N)=O)nc1C(=O)N[C@H](C(=O)N[C@H](C)[C@@H](O)[C@H](C)C(=O)N[C@H](C(=O)NCCC1=N[C@@H](c2nc(C(=O)NCCCCN=C(N)N)cs2)CS1)[C@@H](C)O)[C@@H](O[C@@H]1O[C@@H](CO)[C@@H](O)[C@H](O)[C@@H]1O[C@H]1O[C@H](CO)[C@@H](O)[C@H](OC(N)=O)[C@@H]1O)c1cnc[nH]1` [Zeocin], the “Zeocin concentration up to which viable” value [1] is reported as “up to 4000 μg/ml”, the “number and size of the colonies” value [2] is reported as “concentration-dependent decrease” and the “Zeocin concentration up to which viable” value [3] is reported as at most 6000 µg/mL. For the same molecule, the “Zeocin concentration in which completely nonviable” value [4] was 20 µg/mL and the “Zeocin concentration up to which viable” value [5] was at most 2000 µg/mL.

Source: patent publication US7888123B2 (priority 2005, dated 2011)
